This is an account of results in patent publication US20120129843A1, “PYRIDYL-THIAZOLYL INHIBITORS OF PRO-MATRIX METALLOPROTEINASE ACTIVATION” (priority 2010, published 2012).

Assay [1] concerns the target T1, proMMP9(67-444;ΔFnII) (SEQ ID NO:5) (Homo sapiens, UniProt P14780, DEL216-390).
T1 construct: start methionine (N); made in house; host or cells: E. coli BL21(DE3) RIL
T1 sequence (P14780 with tags, fused parts or gaps DEL216-390): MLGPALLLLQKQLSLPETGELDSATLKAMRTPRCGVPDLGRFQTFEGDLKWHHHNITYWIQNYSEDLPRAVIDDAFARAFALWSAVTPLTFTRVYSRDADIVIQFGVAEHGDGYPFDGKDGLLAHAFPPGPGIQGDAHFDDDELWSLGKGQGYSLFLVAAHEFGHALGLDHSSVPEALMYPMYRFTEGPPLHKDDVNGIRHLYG
The assay is described as follows: ThermoFluor binding assay with proMMP9(67-444;ΔFnII). A digest of the protocol:
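Thermal shift with 3.5 μM desalted proMMP9(67-444;ΔFnII) and 50 μM 1,8-ANS in 50 mM HEPES pH 7.0, 100 mM NaCl, 0.001% Tween-20, 2.5 mM MgCl2, 300 μM CaCl2; compounds serially diluted. Heated 40–90 °C at 1 °C/min, fluorescence at 500 nm; Tm fit, binding modelled using DSC-derived thermodynamic parameters.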
A general note: DSF heats the sample and reads unfolding from a dye or from intrinsic fluorescence.

Assay [2] concerns the target T2, full-length proMMP9(1-707) (SEQ ID NO:1), activation by catalytic MMP3 (Homo sapiens, UniProt P14780, R574P).
T2 construct: made in house; host or cells: HEK293 (proMMP9, secreted); E. coli (MMP3)
The assay is described as follows: proMMP9/MMP3 P126 Activation Assay. The class given is biochemical. Here is the method: proMMP9/MMP3 P126 Activation Assay
The reaction volume was 50 μL. […] Reactivity of residual MMP3 towards P-126 substrate was minimal under these conditions.

Assay [3] deals with T3, proMMP13(1-268) (SEQ ID NO:7) (Homo sapiens, UniProt P45452).
T3 construct: 6xHis (C); made in house; host or cells: HEK293 (transient, secreted)
Kind of assay: ThermoFluor binding assay with proMMP13(1-268). How it is done:
The ThermoFluor® (TF) assay is a 384-well plate-based binding assay that measures thermal stability of proteins (Biomol Screen 2001, 6, 429-40; Biochemistry 2005, 44, 5258-66). The experiments were carried out using instruments available from Johnson & Johnson Pharmaceutical Research & Development, LLC. TF dye used in all experiments was […] (1,8-ANS) (Invitrogen: A-47).
Compounds were arranged in a pre-dispensed plate (Greiner Bio-one: 781280), wherein compounds were serially diluted in 100% DMSO across 11 columns within a series. Columns 12 and 24 were used as DMSO reference and contained no compound. For multiple compound concentration-response experiments, the compound aliquots ([…]) were robotically predispensed directly into black 384-well polypropylene PCR microplates (Abgene: TF-0384/k) using a Cartesian Hummingbird liquid handler (DigiLab, Holliston, Mass.). Following compound dispense, protein and dye solutions were added to achieve the final assay volume of 3 μL. The assay solutions were overlayed with 1 μL of silicone oil (Fluka, type DC 200: 85411) to prevent evaporation.
Assay plates were robotically loaded onto a thermostatically controlled PCR-type thermal block and then heated from 40 to 90° C. at a ramp-rate of 1° C./min for all experiments. Fluorescence was measured by continuous illumination with UV light (Hamamatsu LC6) supplied via fiber optics and filtered through a band-pass filter (380-400 nm; >60D cutoff). Fluorescence emission of the entire 384-well plate was detected by measuring light intensity using a CCD camera (Sensys, Roper Scientific) filtered to detect 500±25 nm, resulting in simultaneous and independent readings of all 384 wells. A single image with 20-sec exposure time was collected at each temperature, and the sum of the pixel intensity in a given area of the assay plate was recorded vs temperature and fit to standard equations to yield the Tm (J Biomol Screen 2001, 6, 429-40).
Thermodynamic parameters necessary for fitting compound binding for each proMMP were estimated by differential scanning calorimetry (DSC) and from ThermoFluor® data. The heat capacity of unfolding for each protein was estimated from the molecular weight and from ThermoFluor® dosing data.
ThermoFluor® with proMMP13(1-268) (SEQ ID NO: 7)
The proMMP13(1-268) (SEQ ID NO:7) protein sample preparations included a desalting buffer exchange step via a PD-10 gravity column (GE Healthcare). The desalting buffer exchange was performed prior to diluting the protein to the final assay concentration of 3.5 μM. The concentration of proMMP13(1-268) (SEQ ID NO:7) was estimated spectrophotometrically based on a calculated extinction coefficient of ε280=37000 M^−1cm^−1, a calculated molecular weight of 30.8 kDa, and calculated pI of 5.33. ThermoFluor® reference conditions were defined as follows: 100 μg/mL proMMP13(1-268) (SEQ ID NO:7), 25 μM 1,8-ANS, pH 7.0 Buffer (50 mM HEPES pH 7.0, 100 mM NaCl, 0.001% Tween-20, 2.5 mM MgCl2, 300 μM CaCl2). The thermodynamic parameters for proMMP13(1-268) (SEQ ID NO:7) are as follows: Tm (° C.)=67 (+/−0.1), ΔUH(Tm) (cal mol^−1)=107000(+/−5000), ΔUS(Tm) (cal mol^−1 K^−1)=318, ΔUCp (cal mol^−1 K^−1)=2600.

The target of assay [4] is T4, proMMP9(20-445;ΔFnII) (SEQ ID NO:6) (Homo sapiens, UniProt P14780, DEL216-390).
T4 construct: start methionine (N); made in house; host or cells: E. coli BL21(DE3) RIL
T4 sequence (P14780 with tags, fused parts or gaps DEL216-390): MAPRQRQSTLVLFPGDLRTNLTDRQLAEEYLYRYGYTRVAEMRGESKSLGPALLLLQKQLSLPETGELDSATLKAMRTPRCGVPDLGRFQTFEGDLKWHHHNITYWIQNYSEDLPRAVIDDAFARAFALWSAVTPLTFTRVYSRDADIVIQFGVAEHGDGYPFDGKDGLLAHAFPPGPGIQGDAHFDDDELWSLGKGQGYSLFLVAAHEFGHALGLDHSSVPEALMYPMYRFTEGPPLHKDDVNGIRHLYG
The assay is described as follows: ThermoFluor binding assay with proMMP9(20-445;ΔFnII). The method in brief: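 Thermal-shift binding using 2.8 μM proMMP9(20-445;ΔFnII) with 50 μM 1,8-ANS in 50 mM HEPES pH 7.0, 100 mM NaCl, 0.001% Tween-20, 2.5 mM MgCl2, 300 μM CaCl2. Compound serially diluted; heated 40–90 °C at 1 °C/min, fluorescence 500 nm. Tm shifts fitted using DSC/ThermoFluor-derived thermodynamic parameters.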

Structures can show the parent of a compound that is named as a salt. A value given as a limit tells only on which side of the number the result lay.

T2 sequence (P14780 20-707 R574P): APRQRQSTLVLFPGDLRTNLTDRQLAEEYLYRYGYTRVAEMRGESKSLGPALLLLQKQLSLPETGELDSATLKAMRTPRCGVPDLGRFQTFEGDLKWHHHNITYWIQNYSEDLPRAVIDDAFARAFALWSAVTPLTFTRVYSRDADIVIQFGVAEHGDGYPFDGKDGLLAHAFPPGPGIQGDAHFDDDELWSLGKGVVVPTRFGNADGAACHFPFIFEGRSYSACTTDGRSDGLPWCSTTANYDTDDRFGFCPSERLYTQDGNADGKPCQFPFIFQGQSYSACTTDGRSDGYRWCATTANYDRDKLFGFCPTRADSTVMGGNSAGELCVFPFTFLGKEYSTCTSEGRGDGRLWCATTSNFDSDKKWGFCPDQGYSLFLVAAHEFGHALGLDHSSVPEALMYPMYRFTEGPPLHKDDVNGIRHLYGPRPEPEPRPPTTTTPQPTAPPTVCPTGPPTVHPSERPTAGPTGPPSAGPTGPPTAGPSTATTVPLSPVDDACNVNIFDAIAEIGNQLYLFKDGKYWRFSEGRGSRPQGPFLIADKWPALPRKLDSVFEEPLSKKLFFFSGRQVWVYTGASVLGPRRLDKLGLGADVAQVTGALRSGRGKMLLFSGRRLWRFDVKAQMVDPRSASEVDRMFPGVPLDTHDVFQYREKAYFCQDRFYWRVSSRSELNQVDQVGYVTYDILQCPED

Usually Kd stands for the concentration at which binding is half-saturated. For orientation: IC50 means the concentration that gives 50% inhibition. For the molecule `COc1ccc(-c2csc(Nc3cc(C(N)=O)ccc3OC(C)C)n2)cn1` [Example 25, 4-Isopropoxy-3-[4-(6-methoxy-pyridin-3-yl)-thiazol-2-ylamino]-benzamide.TFA], the equilibrium dissociation constant (Kd) in assay [1] is 2000 nM; in assay [3] it was 1800 nM; in assay [4] it was 170 nM. The same molecule yielded an IC50 in assay [2] of 460 nM.

Consider `NS(=O)(=O)c1ccc(OC(F)(F)F)c(Nc2nc(-c3cccnc3)cs2)c1` [Example 59, 3-(4-Pyridin-3-yl-thiazol-2-ylamino)-4-trifluoromethoxy-benzenesulfonamide], for which the IC50 in assay [2] was above 20000 nM. In addition, the Kd is above 95000 nM in assay [3] and 36000 nM in assay [4].

Regarding `COc1ccc(CC(N)=O)cc1Nc1nc(-c2cccnc2)cs1` [Example 5, 2-[4-Methoxy-3-(4-pyridin-3-yl-thiazol-2-ylamino)-phenyl]-acetamide], the values for the Kd in assay [1], in assay [3] and in assay [4] were 33000 nM, above 95000 nM and 53000 nM, respectively. Besides, the IC50 in assay [2] was around 19000 nM.

Regarding `CCOc1ccc(C(N)=O)cc1Nc1nc(-c2cccnc2)cs1` [Example 2, 4-Ethoxy-3-(4-pyridin-3-yl-thiazol-2-ylamino)-benzamide.TFA], the equilibrium dissociation constant (Kd) in assay [1] is 1500 nM; in assay [3], 2600 nM; in assay [4], 730 nM. Half-maximal inhibition in assay [2] (IC50) was put at 740 nM.

Turning to `CC(C)Oc1ccc(C(N)=O)cc1Nc1nc(-c2ccnc(Cl)c2)cs1` [Example 21, 3-[4-(2-Chloro-pyridin-4-yl)-thiazol-2-ylamino]-4-isopropoxy-benzamide.TFA], the results for the Kd in assay [1], in assay [3] and in assay [4] were 4100 nM, 1400 nM and 210 nM, respectively. This molecule also showed an IC50 in assay [2] of 600 nM.

`CCOc1ccc(-c2ncco2)cc1Nc1nc(-c2cccnc2)cs1` [Example 18, (2-Ethoxy-5-oxazol-2-yl-phenyl)-(4-pyridin-3-yl-thiazol-2-yl)-amine.HBr]: the dissociation constant (Kd) in assay [1] was 660 nM; in assay [3] it was 3300 nM; in assay [4], 26000 nM. Besides, in assay [2], the IC50 came out at 670 nM.

For `CC(C)Oc1ccc(C(=O)O)cc1Nc1nc(-c2cccnc2)cs1` [Example 17, 4-Isopropoxy-3-(4-pyridin-3-yl-thiazol-2-ylamino)-benzoic acid.TFA], the Kd stood at 5700 nM in assay [1], 1500 nM in assay [3] and 3600 nM in assay [4]. Besides, it took 4300 nM to reach half-maximal inhibition in assay [2] (IC50).

Regarding `CC(C)Oc1ccc(C(N)=O)cc1Nc1nc(-c2ccncc2)cs1` [Example 15, 4-Isopropoxy-3-(4-pyridin-4-yl-thiazol-2-ylamino)-benzamide.HBr], the Kd in assay [1] came to 470 nM; in assay [3], 730 nM; in assay [4] it was 250 nM. The IC50 in assay [2] worked out at 280 nM.

Consider `Cc1cc2cccc(Nc3nc(-c4cccnc4)cs3)c2o1` [Example 3, (2-Methyl-benzofuran-7-yl)-(4-pyridin-3-yl-thiazol-2-yl)-amine], for which the dissociation constant Kd was 38000 nM in assay [1], above 95000 nM in assay [3] and 33000 nM in assay [4]. The IC50 in assay [2] is around 5000 nM.

In the case of `CC(C)Oc1ccc(C(N)=O)cc1Nc1nc(-c2cccnc2)cs1` [Example 1, 4-Isopropoxy-3-(4-pyridin-3-yl-thiazol-2-ylamino)-benzamide.HBr], the Kd is 1000 nM in assay [1], 310 nM in assay [3] and 160 nM in assay [4]. Besides, in assay [2], the IC50 was 360 nM.

Regarding `CC(C)CCNC(=O)c1ccc(-c2csc(Nc3cc(S(N)(=O)=O)ccc3OC(C)C)n2)cn1` [Example 85, N-Isopentyl-5-(2-((2-isopropoxy-5-sulfamoylphenyl)amino)thiazol-4-yl)picolinamide.TFA], the results for the Kd in assay [1] and in assay [4] were 32000 nM and 4600 nM, respectively. The IC50 in assay [2] was around 20000 nM.

Consider `CC(C)Oc1ccc(S(N)(=O)=O)cc1Nc1nc(-c2ccc(N3CCN(C)CC3)nc2)cs1` [Example 33, 4-Isopropoxy-3-{4-[6-(4-methyl-piperazin-1-yl)-pyridin-3-yl]-thiazol-2-ylamino}-benzenesulfonamide.HCl], for which the Kd in assay [1] came out at 120 nM; in assay [4], 46 nM. The same molecule registered an IC50 in assay [2] of 140 nM.

Consider `CC(C)Oc1ccc(S(N)(=O)=O)cc1Nc1nc(-c2ccc(NCCCn3ccnc3)nc2)cs1` [Example 63, 3-((4-(6-((3-(1H-Imidazol-1-yl)propyl)amino)pyridin-3-yl)thiazol-2-yl)amino)-4-isopropoxybenzenesulfonamide.TFA], for which the Kd in assay [1] turned out to be 280 nM; in assay [4], 210 nM. In assay [2], the IC50 was found to be 150 nM.

Turning to `CC(C)Oc1ccc(S(N)(=O)=O)cc1Nc1nc(-c2ccc(C(=O)N3CCNCC3)nc2)cs1` [Example 58, 4-Isopropoxy-3-{4-[6-(piperazine-1-carbonyl)-pyridin-3-yl]-thiazol-2-ylamino}-benzenesulfonamide.TFA], the Kd in assay [1] is 3100 nM; in assay [4], 1200 nM. In addition, the IC50 in assay [2] came to 1400 nM.

Regarding `CC(C)Oc1ccc(S(N)(=O)=O)cc1Nc1nc(-c2ccc(C(=O)O)nc2)cs1` [Example 45, 5-[2-(2-Isopropoxy-5-sulfamoyl-phenylamino)-thiazol-4-yl]-pyridine-2-carboxylic acid.HCl], the figures for the Kd in assay [1] and in assay [4] were 3700 nM and 470 nM, respectively. For the same molecule, in assay [2], it took 370 nM to reach half-maximal inhibition (IC50).

In the case of `CCN1CCCN(C(=O)c2ccc(-c3csc(Nc4cc(S(N)(=O)=O)ccc4OC(C)C)n3)cn2)CC1` [Example 52, 3-{4-[6-(4-Ethyl-[1,4]diazepane-1-carbonyl)-pyridin-3-yl]-thiazol-2-ylamino}-4-isopropoxy-benzenesulfonamide.TFA], the Kd was determined as 2200 nM in assay [1] and 1200 nM in assay [4]. Further, the IC50 in assay [2] came out at 1000 nM.

On to `CC(C)Oc1ccc(S(N)(=O)=O)cc1Nc1nc(-c2ccc(C(=O)N3CCC(N(C)C)CC3)nc2)cs1` [Example 48, 3-{4-[6-(4-Dimethylamino-piperidine-1-carbonyl)-pyridin-3-yl]-thiazol-2-ylamino}-4-isopropoxy-benzenesulfonamide.TFA], for which the Kd came to 4100 nM in assay [1] and 2300 nM in assay [4]. In assay [2], the IC50 was found to be 1100 nM.
